Test results from article PMC8718007, “Decreased glutamate transport in acivicin resistant Leishmania tarentolae” (PLoS Neglected Tropical Diseases, 2021).

Biological target: LtaPh_2202300 (AAT22) (Leishmania tarentolae, UniProt A0A640KGB0)
Test: time-dependent uptake of 3H-glutamate, null mutant vs control strain
Format: cell-based
Settings: 0.1 mM glutamate in PBS, room temperature; labelled compound

LtaPh_2202300 (AAT22), sequence (A0A640KGB0 entry or part of it): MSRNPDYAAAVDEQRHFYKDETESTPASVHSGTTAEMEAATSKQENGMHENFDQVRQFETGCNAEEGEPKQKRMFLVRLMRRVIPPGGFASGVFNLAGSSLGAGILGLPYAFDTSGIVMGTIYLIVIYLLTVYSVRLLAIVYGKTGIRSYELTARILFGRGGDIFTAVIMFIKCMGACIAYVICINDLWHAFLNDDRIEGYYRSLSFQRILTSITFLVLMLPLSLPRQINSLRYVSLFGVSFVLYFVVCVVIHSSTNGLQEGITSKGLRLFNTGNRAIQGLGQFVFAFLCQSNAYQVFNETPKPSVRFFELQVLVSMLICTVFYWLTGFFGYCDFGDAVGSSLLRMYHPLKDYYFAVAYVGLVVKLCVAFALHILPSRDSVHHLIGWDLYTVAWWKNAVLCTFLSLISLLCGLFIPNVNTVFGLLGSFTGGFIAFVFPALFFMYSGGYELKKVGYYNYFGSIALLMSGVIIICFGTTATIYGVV

For `N[C@@H](CCC(=O)O)C(=O)O` [glutamate], the uptake was “The accumulation of glutamate but not glutamine was greatly diminished in that recombinant strain”.
